From ChEMBL document CHEMBL6071181, “Discovery of ZLC491 as a Potent, Selective, and Orally Bioavailable CDK12/13 PROTAC Degrader” (J Med Chem, 2024)
Calls of active or inactive are those of the source. The rule behind the calls is not given here.

Experiments:
[1] = biological target: T1, Protein cereblon/Cyclin-dependent kinase 12 (Homo sapiens) (UniProt Q9NYV4+Q96SW2); test: PROTAC activity at CRBN/CDK12 in human MDA-MB-231 cells assessed as induction of CDK12 degradation incubated for 15 hrs by immunoblotting analysis; type: cell-based
[2] = biological target: T1, Protein cereblon/Cyclin-dependent kinase 12 (Homo sapiens); test: PROTAC activity at CRBN/CDK12 in human HCC38 cells assessed as induction of CDK12 degradation incubated for 15 hrs by immunoblotting analysis; type: cell-based; details: dose 0.01-3 µM
[3] = biological target: T2, Protein cereblon/Cyclin-dependent kinase 13 (Homo sapiens) (UniProt Q14004+Q96SW2); test: PROTAC activity at CRBN/CDK13 in human HCC38 cells assessed as induction of CDK13 degradation incubated for 15 hrs by immunoblotting analysis; type: cell-based; details: dose 0.01-3 µM
[4] = biological target: T1, Protein cereblon/Cyclin-dependent kinase 12 (Homo sapiens); test: PROTAC activity at CRBN/CDK12 in human MDA-MB-231 cells assessed as induction of CDK12 degradation at 1 uM pretreated with MG132 followed by compound addition and measured after 10 hrs by immunoblotting analysis; type: cell-based
[5] = biological target: T2, Protein cereblon/Cyclin-dependent kinase 13 (Homo sapiens); test: PROTAC activity at CRBN/CDK13 in human MDA-MB-231 cells assessed as induction of CDK13 degradation at 1 uM pretreated with MLN4924 followed by compound addition and measured after 10 hrs by immunoblotting analysis; type: cell-based
[6] = biological target: T1, Protein cereblon/Cyclin-dependent kinase 12 (Homo sapiens); test: PROTAC activity at CRBN/CDK12 in human MDA-MB-231 cells assessed as induction of CDK12 degradation at 1 uM pretreated with bafilomycin followed by compound addition and measured after 10 hrs by immunoblotting analysis; type: cell-based
[7] = biological target: T1, Protein cereblon/Cyclin-dependent kinase 12 (Homo sapiens); test: PROTAC activity at CRBN/CDK12 in human MDA-MB-231 cells assessed as induction of CDK12 degradation at 1 uM pretreated with pomalidomide followed by compound addition and measured after 10 hrs by immunoblotting analysis; type: cell-based
[8] = biological target: T1, Protein cereblon/Cyclin-dependent kinase 12 (Homo sapiens); test: PROTAC activity at CRBN/CDK12 in human MDA-MB-231 cells assessed as induction of CDK12 degradation at 1 uM pretreated with 3-benzyl-1-((1r,4r)-4-((5-cyanopyridin-2-yl)amino)cyclohexyl)-1-(4-(piperazin-1-yl)phenyl)urea followed by compound addition and measured after 10 hrs by immunoblotting analysis; type: cell-based
MDA-MB-231 [9] = test: Downregulation of ATR mRNA expression in human MDA-MB-231 cells incubated for 12 hrs by RT-qPCR analysis; type: functional, cell-based; details: dose 60-300 nM
MDA-MB-231 [10] = test: Downregulation of SMARCC mRNA expression in human MDA-MB-231 cells incubated for 12 hrs by RT-qPCR analysis; type: functional, cell-based; details: dose 60-300 nM
MDA-MB-231 [11] = test: Downregulation of ATM protein level in human MDA-MB-231 cells at 0.1 to 0.5 uM incubated for 48 hrs by immunoblotting analysis; type: functional, cell-based; details: dose 0.1-0.5 µM
MDA-MB-231 [12] = test: Downregulation of RAD51 protein level in human MDA-MB-231 cells at 0.1 to 0.5 uM incubated for 48 hrs by immunoblotting analysis; type: functional, cell-based; details: dose 0.1-0.5 µM
MDA-MB-231 [13] = test: Downregulation of BRCA1 protein level in human MDA-MB-231 cells at 0.1 to 0.5 uM incubated for 48 hrs by immunoblotting analysis; type: functional, cell-based; details: dose 0.1-0.5 µM
[14] = Antiproliferative activity against human MCF-10A cells assessed as inhibition of cell growth incubated for 5 days by CCK8 assay; type: toxicity, cell-based
[15] = Antiproliferative activity against human MRC5 cells assessed as inhibition of cell growth incubated for 5 days by CCK8 assay; type: toxicity, cell-based
MDA-MB-231 [16] = test: Synergistic antiproliferative activity against human MDA-MB-231 cells assessed as combination index at 0.3 uM incubated for 5 days in presence of olaparib by CCK8 assay; type: functional; details: time 5 day

T1 sequence (Q96SW2 whole entry, looked up): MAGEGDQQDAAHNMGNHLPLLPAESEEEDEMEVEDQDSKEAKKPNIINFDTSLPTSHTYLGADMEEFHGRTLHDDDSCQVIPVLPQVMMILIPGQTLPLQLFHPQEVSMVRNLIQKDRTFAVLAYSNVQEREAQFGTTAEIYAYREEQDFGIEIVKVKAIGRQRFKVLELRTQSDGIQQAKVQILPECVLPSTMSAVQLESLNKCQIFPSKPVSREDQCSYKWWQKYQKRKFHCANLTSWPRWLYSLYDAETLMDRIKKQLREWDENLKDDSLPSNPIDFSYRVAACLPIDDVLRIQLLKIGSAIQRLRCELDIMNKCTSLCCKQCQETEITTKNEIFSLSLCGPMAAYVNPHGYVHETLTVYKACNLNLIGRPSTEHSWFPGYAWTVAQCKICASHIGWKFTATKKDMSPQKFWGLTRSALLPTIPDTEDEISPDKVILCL
T1 sequence (Q9NYV4 whole entry, looked up): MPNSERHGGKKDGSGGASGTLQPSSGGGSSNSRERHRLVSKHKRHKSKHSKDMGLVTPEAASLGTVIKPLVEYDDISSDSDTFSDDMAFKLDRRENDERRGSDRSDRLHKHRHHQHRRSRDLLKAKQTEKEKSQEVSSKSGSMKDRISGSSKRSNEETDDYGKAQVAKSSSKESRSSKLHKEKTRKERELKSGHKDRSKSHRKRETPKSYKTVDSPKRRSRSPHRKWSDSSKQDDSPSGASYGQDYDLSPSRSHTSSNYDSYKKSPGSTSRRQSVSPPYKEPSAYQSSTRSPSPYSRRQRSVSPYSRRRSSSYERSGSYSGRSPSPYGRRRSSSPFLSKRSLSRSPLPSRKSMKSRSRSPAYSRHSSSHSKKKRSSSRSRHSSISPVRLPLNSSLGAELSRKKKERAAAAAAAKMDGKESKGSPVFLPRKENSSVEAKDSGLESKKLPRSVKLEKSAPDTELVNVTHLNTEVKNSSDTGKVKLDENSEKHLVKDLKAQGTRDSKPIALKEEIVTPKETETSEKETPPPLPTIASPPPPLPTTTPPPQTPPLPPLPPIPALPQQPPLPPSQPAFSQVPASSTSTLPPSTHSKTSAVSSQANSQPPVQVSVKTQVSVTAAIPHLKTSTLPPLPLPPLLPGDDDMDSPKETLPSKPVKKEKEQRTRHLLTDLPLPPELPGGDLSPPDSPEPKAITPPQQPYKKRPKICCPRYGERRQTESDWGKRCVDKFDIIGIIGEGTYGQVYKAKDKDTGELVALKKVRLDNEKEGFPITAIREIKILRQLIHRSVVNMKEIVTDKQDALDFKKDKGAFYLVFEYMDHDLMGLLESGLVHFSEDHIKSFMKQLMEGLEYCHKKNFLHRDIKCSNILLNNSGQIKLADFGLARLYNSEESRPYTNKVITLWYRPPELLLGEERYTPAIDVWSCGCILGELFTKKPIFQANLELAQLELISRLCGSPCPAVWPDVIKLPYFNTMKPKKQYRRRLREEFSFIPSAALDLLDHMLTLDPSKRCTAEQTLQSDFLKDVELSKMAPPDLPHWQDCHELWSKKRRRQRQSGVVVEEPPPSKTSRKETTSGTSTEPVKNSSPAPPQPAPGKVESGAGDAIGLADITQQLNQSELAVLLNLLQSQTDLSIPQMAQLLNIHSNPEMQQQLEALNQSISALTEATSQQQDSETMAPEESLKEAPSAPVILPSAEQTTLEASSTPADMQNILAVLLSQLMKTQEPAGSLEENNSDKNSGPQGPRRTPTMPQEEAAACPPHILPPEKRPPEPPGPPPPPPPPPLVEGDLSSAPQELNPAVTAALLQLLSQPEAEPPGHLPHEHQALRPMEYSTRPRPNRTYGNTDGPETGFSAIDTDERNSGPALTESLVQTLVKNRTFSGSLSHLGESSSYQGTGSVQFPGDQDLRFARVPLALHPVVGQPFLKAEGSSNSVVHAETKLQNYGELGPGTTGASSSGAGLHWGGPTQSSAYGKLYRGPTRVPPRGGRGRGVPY
T2 sequence (Q14004 whole entry, looked up): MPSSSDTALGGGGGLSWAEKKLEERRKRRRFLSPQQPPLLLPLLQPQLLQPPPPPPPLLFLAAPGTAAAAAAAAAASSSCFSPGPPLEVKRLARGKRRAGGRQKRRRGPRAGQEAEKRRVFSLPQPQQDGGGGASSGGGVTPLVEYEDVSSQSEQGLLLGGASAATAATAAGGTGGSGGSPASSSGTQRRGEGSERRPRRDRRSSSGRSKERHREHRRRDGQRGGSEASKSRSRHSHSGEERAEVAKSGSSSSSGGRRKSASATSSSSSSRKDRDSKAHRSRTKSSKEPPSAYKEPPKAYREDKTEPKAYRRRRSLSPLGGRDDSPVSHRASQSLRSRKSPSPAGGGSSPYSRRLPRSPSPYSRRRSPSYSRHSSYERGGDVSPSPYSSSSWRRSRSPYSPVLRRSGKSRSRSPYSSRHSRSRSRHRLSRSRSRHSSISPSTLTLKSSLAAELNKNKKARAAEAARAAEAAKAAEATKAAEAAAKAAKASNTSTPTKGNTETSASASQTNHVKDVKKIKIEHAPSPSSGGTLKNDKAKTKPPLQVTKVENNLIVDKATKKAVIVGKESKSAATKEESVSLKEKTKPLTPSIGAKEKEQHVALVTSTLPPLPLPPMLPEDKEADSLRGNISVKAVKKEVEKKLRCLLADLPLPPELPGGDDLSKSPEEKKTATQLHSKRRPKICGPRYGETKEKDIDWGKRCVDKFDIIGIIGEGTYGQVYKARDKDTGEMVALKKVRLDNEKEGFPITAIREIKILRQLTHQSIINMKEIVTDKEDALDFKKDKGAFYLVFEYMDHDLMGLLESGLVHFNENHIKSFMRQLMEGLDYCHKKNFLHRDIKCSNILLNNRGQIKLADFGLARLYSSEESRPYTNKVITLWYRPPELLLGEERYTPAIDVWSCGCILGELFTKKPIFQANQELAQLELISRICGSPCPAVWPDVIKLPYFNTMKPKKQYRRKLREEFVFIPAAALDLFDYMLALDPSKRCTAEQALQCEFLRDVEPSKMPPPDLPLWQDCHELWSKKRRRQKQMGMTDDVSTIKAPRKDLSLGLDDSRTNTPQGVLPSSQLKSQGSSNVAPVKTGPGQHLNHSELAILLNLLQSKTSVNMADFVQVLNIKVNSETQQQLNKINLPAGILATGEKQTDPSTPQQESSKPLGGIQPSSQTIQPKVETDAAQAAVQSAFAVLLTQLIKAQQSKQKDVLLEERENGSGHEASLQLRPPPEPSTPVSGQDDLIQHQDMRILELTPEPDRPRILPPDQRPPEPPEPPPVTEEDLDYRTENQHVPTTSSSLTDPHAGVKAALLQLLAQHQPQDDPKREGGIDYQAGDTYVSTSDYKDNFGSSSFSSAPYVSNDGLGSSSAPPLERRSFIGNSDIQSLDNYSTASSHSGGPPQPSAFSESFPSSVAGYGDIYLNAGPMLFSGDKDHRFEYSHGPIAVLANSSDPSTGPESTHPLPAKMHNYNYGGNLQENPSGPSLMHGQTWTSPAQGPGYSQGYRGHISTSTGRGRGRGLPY
T2 sequence (Q96SW2 whole entry, looked up): as the sequence (Q96SW2 whole entry, looked up) above

- Activity [1]: Dose-Dependent Effect
- Activity [2]: Dose-Dependent Effect
- Activity [3]: Dose-Dependent Effect
- Activity [4]: inactive
- Activity [5]: inactive
- Activity [6]: Active
- Activity [7]: inactive
- Activity [8]: inactive
SMILES: N#Cc1ccc(N[C@H]2CC[C@H](N(C(=O)NCc3ccccc3)c3ccc(N4CCN(C5CCN(c6cc7c(cc6F)C(=O)N(C6CCC(=O)NC6=O)C7=O)CC5)CC4)cc3)CC2)nc1 (stereo partly specified)
- Activity (MDA-MB-231 [9]): Dose-Dependent Effect
- Activity (MDA-MB-231 [10]): Dose-Dependent Effect
- Activity (MDA-MB-231 [11]): Active
- Activity (MDA-MB-231 [12]): Active
- Activity (MDA-MB-231 [13]): Active
- IC50 at 5 days [14]: > 10 µM
- IC50 at 5 days [15]: > 10 µM
- CI (MDA-MB-231 [16]): >1
